In US20080275105A1, “Selective Muscle Relaxant and Pharmaceutical Compositions” (UNIVERSIDADE FEDERAL DO RIO DE JANEIROUFRJ, priority 2004, published 2008):

Experiments:
[1] = test system: rat aorta rings with no endothelium; assay: KCl-induced contracture in aorta rings without endothelium; type: cell-based; settings: KCl 40 mM; for IC50: Rattus norvegicus, without endothelium, six experiments, read-out: CI50 (μM) Average ± SEM
Procedure: (§1) Once the experiments have been carried out, the findings were subject to statistical analyses being expressed in average ±SEM as a percentage of the control value, and graphs were drawn up using the Sigma Plot 5.0 program to represent the data obtained. For the statistical analysis of the effects on the different muscle tissues, the difference was assessed among the concentrations of the same derivative, using the “t” Student test. In order to ascertain the difference among the derivatives, the one-way ANOVA test was used. The differences were considered as significant for p<0.05. The Cl50 was expressed as an average ±SEM of the values obtained for each experiment through non-linear regression based on the y=yo+ae^−bx equation.
(§2) Male Wistar rats weighing between 240-280 grams were sacrificed through dislocation of the cervical column under anesthesia using ethyl ether. The aorta artery was removed and transferred to a Petri dish containing modified Tyrode's solution whose composition is described in Table 3 below, where the vessel was cleaned and the connective tissue was removed. According to the scheduled Experiment Protocol, the vascular endothelium was removed mechanically with the assistance of a polyethylene rod. The artery was divided into rings with a width of 2-3 mm. Two hooks were placed in the wall of the vessel in order to record the tension generated by the muscle in a transversal direction. To do so, one of the hooks was tied to a fixed point in the chamber and the other to a power transducer (FT 03) for recording the isometric tension. The tension generated by the muscle was transformed into a digitized electric signal (Digidata 1322A) and stored in a computer for subsequent analysis using the Axoscope 8.0 program (Axon Instruments, Inc). The chamber was filled with Krebs solution, oxygenated and kept at a temperature of 37° C.
After stabilizing the preparation, approximately 120 minutes, the Experiment Protocol began. Initially, in order to identify the presence or absence of the vascular endothelium, the preparation was exposed to phenylephrine (10 μM) and when the contracture in response to this substance was stabilized, acetylcholine (10 μM) was added to the nutrient solution. Relaxation of over 80% in response to the acetylcholine indicated the full integrity of the endothelium and relaxation of less than 10% indicated the absence of endothelium. The tissues in which the relaxation intensity fell between >10% and <80% were discarded. […] […] For the purpose of comparing the potency of some of the L294 analogs, the Cl50 was determined for each experiment using the y=yo+ae^−bx equation and their mean was used for the statistical analysis.

[2] = test system: aorta rings with no preserved endothelium; assay: Phenylephrine-induced contracture in aorta rings without endothelium; type: cell-based, rat; settings: for IC50: Rattus norvegicus, phenylephrine 10 μM, without endothelium, six experiments, read-out: CI50 (MM) Average ± SEM
Procedure: as §1, §2
(§3) After stabilizing the preparation, approximately 120 minutes, the Experiment Protocol began. Initially, in order to identify the presence or absence of the vascular endothelium, the preparation was exposed to phenylephrine (10 μM) and when the contracture in response to this substance was stabilized, acetylcholine (10 μM) was added to the nutrient solution. Relaxation of over 80% in response to the acetylcholine indicated the full integrity of the endothelium and relaxation of less than 10% indicated the absence of endothelium. The tissues in which the relaxation intensity fell between >10% and <80% were discarded. In order to investigate the vasodilator effect of the different L294 analogs, they were added to the experiment chambers in rising concentration after the contracture stabilization of the vessel induced by phenylephrine. The tension registered after treatment with each of the L294 analog concentrations was normalized as a function of the amplitude of the contracture triggered by phenylephrine. For the purpose of comparing the potency of some of the L294 analogs, the Cl50 was determined for each experiment using the y=yo+ae^−bx equation and their mean was used for the statistical analysis.
The importance of the presence of vascular endothelium in the vasodilatory action of the L294 analogs was assessed in experiments in which these cells were removed mechanically. […] When the findings of the experiments without the endothelium were analyzed as a whole, the absence of the L790 effect was confirmed. […] The maximum relaxation caused by the L787 and L789 analogs was less than 50% of the control, and the other analogs caused relaxation in the following decreasing order of efficacy: L785>L788>L786. Once again, attention is drawn to the marked efficiency of the L785 and L788 analogs.

[3] = test system: soleus (SOL) muscle; assay: Electrically induced twitch amplitude in slow-fiber skeletal muscle (SOL); type: cell-based, mice; settings: for SOL twitch amplitude 30 min-Washing (% of the control): 30 min after washing
Procedure: (§4) Male mice weighing 22-28 g were sacrificed through cervical dislocation and the extensor digitorium longus (EDL) and soleus (SOL) muscles were dissected in a Ringer-Krebs solution, whose composition is given in Table 9, at room temperature. The muscles were placed in vertical chambers with a capacity of 10 ml, and were fixed by their ends to the stimulation electrode fixation rod and a power transducer (Grass FT03) for registering muscle twitches. The chamber solution was bubbled continuously with a carbogenic mixture (95% O2/5% CO2) and kept at a temperature of 37° C. The muscles were stimulated electrically through a stimulator (Grass S88) at a frequency of 0.2 Hz, at 37° C. After the stabilization of the muscle twitches (±30 minutes) a control record was taken in the absence of the drug, and subsequently rising concentrations (from 10 μM to 200 μM) of the L294 derivatives were added every ten minutes, diluted in DMSO. […] The signals recorded by the transducer were amplified (Cyberamp) and the isometric tension was digitized (Digidata 1322A) and stored on a computer. The screening and analysis of the experiment was handled through the use of the Axoscope 8.0 program. (Zapata-Sudo, 2003).
(§5) A measurement of the electrically-induced twitch amplitude was selected to assist the effects of the L294 analogs on the skeletal muscle inotropism. One muscle consisting of fast fibers (extensor digitorium longus-EDL) and the other of slow fibers (soleus-SOL) taken from mice were selected for this purpose. Differences in the timing of the twitches between the fast and slow muscles are shown at the faster recording speed. […] Washing the preparation with Krebs solution caused a partial reversion of the effects induced by the L786.

[4] = test system: rat aorta rings with the vascular endothelium preserved; assay: Phenylephrine-induced contracture in aorta rings with preserved endothelium; type: cell-based; settings: phenylephrine 10 μM; for IC50: Rattus norvegicus, with endothelium, six experiments, read-out: CI50 (μM) Average ± SEM
Procedure: as §1, §2, §3

[5] = test system: extensor digitorium longus (EDL) muscle; assay: Electrically induced twitch amplitude in fast-fiber skeletal muscle (EDL); type: cell-based, mice
Procedure: as §4, §5

| IC50 [1] [µM] | IC50 [2] [µM] | IC50 [4] [µM] | SMILES | effect on SOL muscle twitches ([3]; 50 μM, result in words) | SOL twitch amplitude 200 μM (% of the control) [3] | SOL twitch amplitude 30 min-Washing (% of the control) [3] | maximum inhibition levels of phenylephrine contracture, with endothelium [4] [%] | effect on EDL muscle twitches ([5]; 50 μM, result in words) | EDL twitch amplitude 200 μM (% of the control) [5] | reversal of the contracture caused by K+, without endothelium ([1]; highest concentration 200 μM, result in words) | relaxation of phenylephrine contracture, without endothelium ([2]; 100 μM, result in words) | EDL twitch amplitude 30 min-Washing (% of the control) ([5]; 30 min after washing) |
| --- | --- | --- | --- | --- | --- | --- | --- | --- | --- | --- | --- | --- |
| 151 ± 7.6 | 86.2 ± 7.1 | 134 ± 31 | O=C(c1ccc2c(c1)OCO2)N(Cc1ccccc1)/N=C/c1cccs1 [L786, 1,3-Benzodioxol-5-carboxylic acid, N-benzyl-N′-[1-thiophene-2-yl-meth-(E)-ylidene]-hydrazide] | reduction in the amplitude and an extension in the duration of the muscle twitches | 61.9±5.5 % of the control | 77.0 ± 10.3 % of the control | 34.5±7.6 | reduction in the amplitude and an extension in the duration of the muscle twitches | 28.7±9.9 % of the control |  |  |  |
| 40.5 ± 9.5 | 18.5 ± 3.6 | 10.2 ± 0.5 | CN(/N=C/c1cccs1)C(=O)c1ccc2c(c1)OCO2 [L785, 1,3-Benzodioxol-5-carboxylic acid, N-methyl-N′-[1-thiophene-2-yl-meth-(E)-ylidene]-hydrazide] |  | 28.4±6.6 % of the control | 37.9 ± 9.6 % of the control |  |  | 31.6±4.7 % of the control | unable to completely reverse the contracture | relaxation was almost total | 36.4 ± 4.5 % of the control |
